Converted amounts (≈) assume the structure as drawn.
Key:
Escherichia coli ECO15 [1] = experiment: FaAST with DAA-Cy5-2 probe; type: cell-based; conditions: unit assumed
Experimental: (§1) With reference to the flow chart of the rapid detection method of antimicrobial susceptibility test based on FDAA metabolic markers shown in FIG. 3, FDAA is used for the detection of antimicrobial susceptibility test of alveolar lavage fluid. The specific experimental steps are as follows: • 1. Mix bronchoalveolar lavage fluid (BALF, 10 ml) of patients with hospital acquired pneumonia with cation regulated broth medium (CAMHB, 10 ml) of twice the concentration to prepare the bacterial fluid to be tested. • 2. Add 45 μl antibiotic solutions of different concentrations to the 96-well plate separately (see Table 1 for antibiotic concentration gradient settings). • 3. Add 50 μl of the bacterial solution prepared in step 1 to the 96-well plate and mix well. • 4. Add 5 μl of 10 mM Cy5-DAA probe (final concentration 0.15 mM, see FIG. 1 for its structure) into each well, mix well, and then cultivate in dark for 2 hours. • 5. Add 200 μl PBS solution for dilution, and then use flow cytometry to detect the fluorescence intensity of each sample.
The specific steps are the same as in Example 5. […] The minimum inhibitory concentration of antibiotics was obtained according to the fluorescence signal intensity of flow detection, and the statistical results are shown in Table 7.

E.coli 1146 [2] = experiment: FDAA metabolic labeling susceptibility test (Cy5-DAA probe, flow cytometry); type: cell-based, Escherichia coli; conditions: Escherichia coli; E.coli 1146; Cy5-DAA probe, 2 hours; read-out: MIC, FDAA
Experimental: (§2) The specific experimental steps are as follows: • 1. Take the colony to be tested that has been cultured overnight on the plate and fully mix it in normal saline to make a uniform bacterial solution. Dilute it into CAMHB medium to make a bacterial solution with OD600=0.05. • 2. Add 45 μl antibiotic solutions to be tested of different concentrations to 96-well plates (see Table 3 for antibiotic concentration gradient settings). • 3. Add 50 μl of bacterial solution prepared in Step 1 to the 96-well plate and mix well. • 4.5 μl of 10 mM Cy5-DAA probe was added to each well (final concentration was 0.15 mM, and its structure was shown in FIG. 1). After mixing, the probe was incubated for 2 hours in the dark. • 5. After dilution with 200 μl PBS solution, the fluorescence intensity of each sample was detected by flow cytometry. The flow detection results are shown in the attached FIG. 4-5, showing the curve of antibiotic concentration gradient and fluorescence intensity, and the MIC (minimum inhibitory concentration) is obtained by referring to this curve.

E.coli 1113 [3] = experiment: as above; type: cell-based, Escherichia coli; conditions: Escherichia coli; E.coli 1113; Cy5-DAA probe, 2 hours; read-out: MIC, FDAA
Experimental: as §2

Escherichia coli ECO922 [4] = experiment: FaAST with DAA-Tetra probe; type: cell-based; conditions: unit assumed
Experimental: The specific experimental steps are as follows: • 1. The tested colonies cultured overnight on the plate were picked and mixed thoroughly in 2× Cation-Adjusted Mueller Hinton Broth medium (2×CAMHB) to make bacterial suspension with turbidity of OD600=0.1. • 2. […] Add 50 μL of the bacterial solution prepared in step 1 (the final concentration of the bacterial solution is OD600=0.05) to the 96-well plate, and add 5 μL of 3 mM DAA-Tetra probe (the final concentration is 0.15 mM), mix well, and incubate in the dark at 37° C. 120 rpm for 2 hours. • 4. After culture, dilute the mixed bacterial solution 10 times with PBS solution, and detect the fluorescence intensity of each sample with flow cytometry. The flow detection result is shown in FIG. 14-19, and the arrow is for the MIC value. The minimum inhibitory concentration of antibiotics was obtained according to the fluorescence signal intensity of flow detection, and the statistical results are shown in Table 6.

P. aeruginosa Pa3 [5] = experiment: FaAST (FDAA metabolic labeling); type: cell-based, Pseudomonas aeruginosa; conditions: unit assumed
Experimental: as §2
(§3) Antibiotic resistant strains are shown in bold in the table below.

Pa ATCC 27853 [6] = experiment: FaAST (FDAA metabolic labeling); type: cell-based, Pseudomonas aeruginosa; conditions: unit assumed
Experimental: as §2, §3

P. aeruginosa Pa2 [7] = experiment: FaAST (FDAA metabolic labeling); type: cell-based, Pseudomonas aeruginosa; conditions: unit assumed
Experimental: as §2, §3

K. pneumoniae Kp6 [8] = experiment: FaAST (FDAA metabolic labeling); type: cell-based, Klebsiella pneumoniae; conditions: unit assumed
Experimental: as §2, with “cytometry.” for “cytometry. The flow detection results are shown in the attached FIG. 4-5, showing the curve of antibiotic concentration gradient and fluorescence intensity, and the MIC (minimum inhibitory concentration) is obtained by referring to this curve.”

E.coli 1113 [9] = experiment: Vitek 2 drug sensitivity test; type: cell-based, Escherichia coli; also: key: S: Drug sensitive; R: Drug resistance
P. aeruginosa Pa2 [10] = experiment: BMD susceptibility test; type: cell-based, Pseudomonas aeruginosa; conditions: unit assumed
E. coli Ec13 [11] = experiment: BMD susceptibility test; type: cell-based, Escherichia coli; conditions: unit assumed
K. pneumoniae Kp9 = experiment: BMD susceptibility test; type: cell-based, Klebsiella pneumoniae; conditions: unit assumed
[12] = tested on: bacteria contained in alveolar lavage fluid; experiment: Vitek 2 drug sensitivity test of alveolar lavage fluid; type: cell-based; as to Sensibility: key: S: Drug sensitive; R: Drug resistance
E.coli 1146 [13] = experiment: Vitek 2 drug sensitivity test; type: cell-based, Escherichia coli; as to Sensibility: key: S: Drug sensitive; R: Drug resistance
A. baumannii Ab19 [14] = experiment: BMD susceptibility test; type: cell-based, Acinetobacter baumannii; conditions: unit assumed
P. aeruginosa Pa3 [15] = experiment: BMD susceptibility test; type: cell-based, Pseudomonas aeruginosa; conditions: unit assumed
E. coli Ec13 [16] = experiment: FaAST (FDAA metabolic labeling); type: cell-based, Escherichia coli; conditions: unit assumed
Experimental: as §2, with “cytometry.” for “cytometry. The flow detection results are shown in the attached FIG. 4-5, showing the curve of antibiotic concentration gradient and fluorescence intensity, and the MIC (minimum inhibitory concentration) is obtained by referring to this curve.”

Pa ATCC 27853 [17] = experiment: BMD susceptibility test; type: cell-based, Pseudomonas aeruginosa; conditions: unit assumed
E. coli Ec11 [18] = experiment: BMD susceptibility test; type: cell-based, Escherichia coli; conditions: unit assumed
E. coli Ec11 [19] = experiment: FaAST (FDAA metabolic labeling); type: cell-based, Escherichia coli; conditions: unit assumed
Experimental: as §2, §3

Ec ATCC 25922 [20] = experiment: FaAST (FDAA metabolic labeling); type: cell-based, Escherichia coli; conditions: unit assumed
Experimental: as §2, §3

Escherichia coli ECO922 [21] = experiment: VITEK drug sensitivity test; type: cell-based; conditions: unit assumed
Ec ATCC 25922 [22] = experiment: BMD susceptibility test; type: cell-based, Escherichia coli; conditions: unit assumed
K. pneumoniae Kp6 [23] = experiment: BMD susceptibility test; type: cell-based, Klebsiella pneumoniae; conditions: unit assumed
A. baumannii Ab16 [24] = experiment: BMD susceptibility test; type: cell-based, Acinetobacter baumannii; conditions: unit assumed
[25] = tested on: bacteria contained in alveolar lavage fluid; experiment: FDAA metabolic labeling susceptibility test of alveolar lavage fluid (Cy5-DAA probe); type: cell-based; conditions: alveolar lavage fluid of patients with hospital acquired pneumonia, 2 hours
Experimental: as §1

A. baumannii Ab16 [26] = experiment: FaAST (FDAA metabolic labeling); type: cell-based, Acinetobacter baumannii; conditions: unit assumed
Experimental: as §2, with “cytometry.” for “cytometry. The flow detection results are shown in the attached FIG. 4-5, showing the curve of antibiotic concentration gradient and fluorescence intensity, and the MIC (minimum inhibitory concentration) is obtained by referring to this curve.”

Escherichia coli ECO15 [27] = experiment: VITEK drug sensitivity test; type: cell-based; conditions: unit assumed
A. baumannii Ab19 [28] = experiment: FaAST (FDAA metabolic labeling); type: cell-based, Acinetobacter baumannii; conditions: unit assumed
Experimental: as §2, §3

## C[C@@H](O)[C@H]1C(=O)N2C(C(=O)O)=C(SCCN=CN)C[C@H]12 [Imipenem, imipenem]
Escherichia coli ECO15 [1]
  MIC, FaAST: 128 µg/mL (≈ 428 µM)
E.coli 1146 [2]
  MIC: 0.5 µg/mL (≈ 1.67 µM)
E.coli 1113 [3]
  MIC: ≥ 128 µg/mL
Escherichia coli ECO922 [4]
  MIC, FaAST: 1 µg/mL (≈ 3.34 µM)
P. aeruginosa Pa3 [5]
  FaAST (MIC): 32 µg/mL
Pa ATCC 27853 [6]
  FaAST (MIC): 1 µg/mL
P. aeruginosa Pa2 [7]
  FaAST (MIC): 1 µg/mL
K. pneumoniae Kp6 [8]
  FaAST (MIC): 1 µg/mL
E.coli 1113 [9]
  Sensibility: R
P. aeruginosa Pa2 [10]
  BMD (MIC): 1 µg/mL
E. coli Ec13 [11]
  BMD (MIC): 16 µg/mL
K. pneumoniae Kp9
  BMD (MIC): 128 µg/mL
[12]
  MIC: ≥ 16 µg/mL
  Sensibility: R
E.coli 1146 [13]
  Sensibility: S
E.coli 1146 [13]; Escherichia coli
  MIC: ≤ 1 µg/mL
A. baumannii Ab19 [14]
  BMD (MIC): ≤ 0.25 µg/mL
P. aeruginosa Pa3 [15]
  BMD (MIC): 32 µg/mL
E. coli Ec13 [16]
  FaAST (MIC): 128 µg/mL
Pa ATCC 27853 [17]
  BMD (MIC): 2 µg/mL
E. coli Ec11 [18]
  BMD (MIC): ≤ 0.25 µg/mL
E. coli Ec11 [19]
  FaAST (MIC): 1 µg/mL
Ec ATCC 25922 [20]
  FaAST (MIC): 1 µg/mL
Escherichia coli ECO922 [21]
  MIC, VITEK: 1 µg/mL (≈ 3.34 µM)
Ec ATCC 25922 [22]
  BMD (MIC): ≤ 0.25 µg/mL
K. pneumoniae Kp6 [23]
  BMD (MIC): ≤ 0.25 µg/mL
A. baumannii Ab16 [24]
  BMD (MIC): 32 µg/mL
[25]
  MIC, FDAA: ≥256 µg/mL
A. baumannii Ab16 [26]
  FaAST (MIC): 64 µg/mL
Escherichia coli ECO15 [27]
  MIC, VITEK: 128 µg/mL (≈ 428 µM)
A. baumannii Ab19 [28]
  FaAST (MIC): 1 µg/mL
